Experimental data published in ChEMBL document CHEMBL1201862, “PubChem BioAssay data set” (2004).
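Dose response: 5 concentrations. Exposure: 48 h. Format: 96-well plates. Endpoint: linear interpolation; highest concentration if not reached. Abbreviation: GI50, concentration required for 50% inhibition of growth.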 Activity calls are given as the source filed them. Cut-off read from the data, not from the text of the source: active = GI50 up to about 1.1 µM and inactive = higher.

Columns and labels:
Assay in all cases: NCI-60 cell line screen, 48 h
OVCAR-4 = system: OVCAR-4
SNB-78 = system: SNB-78
XF498 = system: XF498
OVCAR-8 = system: OVCAR-8
OVCAR-5 = system: OVCAR-5
DMS-114 = system: DMS-114
SNB-19 = system: SNB-19
COLO 205 = system: COLO 205
SK-OV-3 = system: SK-OV-3
SK-MEL-2 = system: SK-MEL-2
TK-10 = system: TK-10
K562 = system: K562
OVCAR-3 = system: OVCAR-3
RPMI-8226 = system: RPMI-8226
A549 = system: A549
HCT-15 = system: HCT-15
NCI-H23 = system: NCI-H23
CAKI-1 = system: CAKI-1
KM-20L2 = system: KM-20L2
UACC-62 = system: UACC-62
SF-539 = system: SF-539
CCRF-CEM = system: CCRF-CEM
HCC 2998 = system: HCC 2998
SF-268 = system: SF-268
U-251 = system: U-251
HT-29 = system: HT-29
DLD-1 = system: DLD-1
SK-MEL-5 = system: SK-MEL-5
M14 = system: M14
RXF 393 = system: RXF 393
IGROV-1 = system: IGROV-1
HCT-116 = system: HCT-116
HL-60 = system: HL-60
NCI-H460 = system: NCI-H460
Malme-3M = system: Malme-3M
A498 = system: A498
MOLT-4 = system: MOLT-4
HOP-62 = system: HOP-62
SN12C = system: SN12C
SK-MEL-28 = system: SK-MEL-28
UACC-257 = system: UACC-257
NCI-H226 = system: NCI-H226
ACHN = system: ACHN
HOP-92 = system: HOP-92
M19-MEL = system: M19-MEL
SNB-75 = system: SNB-75
UO-31 = system: UO-31
KM12 = system: KM12
SF-295 = system: SF-295
LOX IMVI = system: LOX IMVI
EKVX = system: EKVX
SW-620 = system: SW-620
SR = system: SR
786-0 = system: 786-0
DMS-273 = system: DMS-273
LXFL 529 = system: LXFL 529
NCI-H522 = system: NCI-H522

## Cc1cc2c(cc1O)[nH]c1cc3c(cc12)C=CC(C)(C)O3
OVCAR-4
  GI50: 10.5 µM (inactive)
SNB-78
  GI50: 11.3 µM (inactive)
XF498
  GI50: > 25 µM (inactive)
OVCAR-8
  GI50: 4.55 µM (inactive)
OVCAR-5
  GI50: 17.7 µM (inactive)
DMS-114
  GI50: 10.6 µM (inactive)
SNB-19
  GI50: > 25 µM (inactive)
COLO 205
  GI50: > 25 µM (inactive)
SK-OV-3
  GI50: > 25 µM (inactive)
SK-MEL-2
  GI50: > 25 µM (inactive)
TK-10
  GI50: > 25 µM (inactive)
K562
  GI50: > 25 µM (inactive)
OVCAR-3
  GI50: 7.28 µM (inactive)
RPMI-8226
  GI50: 9.1 µM (inactive)

## Cc1cc(C)nc(NS(=O)(=O)c2ccc(Nc3c4ccccc4nc4c(C(=O)N5CCN(CCOS(C)(=O)=O)CC5)cccc34)cc2)n1
A549
  GI50: > 100 µM (inactive)
HCT-15
  GI50: > 100 µM
NCI-H23
  GI50: > 100 µM (inactive)
CAKI-1
  GI50: > 100 µM (inactive)
KM-20L2
  GI50: > 100 µM (inactive)
OVCAR-4
  GI50: > 100 µM (inactive)
UACC-62
  GI50: > 100 µM (inactive)
SF-539
  GI50: > 100 µM (inactive)
CCRF-CEM
  GI50: 72.9 µM (inactive)
HCC 2998
  GI50: > 100 µM (inactive)
SF-268
  GI50: > 100 µM (inactive)
SNB-78
  GI50: > 100 µM (inactive)
U-251
  GI50: 67 µM (inactive)
HT-29
  GI50: > 100 µM (inactive)
DLD-1
  GI50: > 100 µM (inactive)
SK-MEL-5
  GI50: > 100 µM (inactive)
M14
  GI50: > 100 µM (inactive)
RXF 393
  GI50: > 100 µM (inactive)
XF498
  GI50: > 100 µM (inactive)
IGROV-1
  GI50: > 100 µM (inactive)
OVCAR-8
  GI50: > 100 µM (inactive)
HCT-116
  GI50: > 100 µM (inactive)
HL-60
  GI50: > 100 µM (inactive)
NCI-H460
  GI50: 84.9 µM (inactive)
OVCAR-5
  GI50: > 100 µM (inactive)
Malme-3M
  GI50: > 100 µM (inactive)
DMS-114
  GI50: 99.1 µM (inactive)
A498
  GI50: > 100 µM (inactive)
MOLT-4
  GI50: 60.3 µM (inactive)
SNB-19
  GI50: > 100 µM (inactive)
COLO 205
  GI50: > 100 µM (inactive)
HOP-62
  GI50: > 100 µM (inactive)
SN12C
  GI50: > 100 µM (inactive)
SK-MEL-28
  GI50: > 100 µM (inactive)
SK-OV-3
  GI50: > 100 µM (inactive)
UACC-257
  GI50: > 100 µM (inactive)
NCI-H226
  GI50: > 100 µM (inactive)
SK-MEL-2
  GI50: > 100 µM (inactive)
TK-10
  GI50: > 100 µM (inactive)
K562
  GI50: 53.2 µM (inactive)
ACHN
  GI50: > 100 µM (inactive)
HOP-92
  GI50: > 100 µM (inactive)
M19-MEL
  GI50: > 100 µM (inactive)
SNB-75
  GI50: 49.9 µM (inactive)
UO-31
  GI50: > 100 µM (inactive)
OVCAR-3
  GI50: 96.4 µM (inactive)
RPMI-8226
  GI50: > 100 µM (inactive)
KM12
  GI50: > 100 µM (inactive)
SF-295
  GI50: > 100 µM (inactive)

## CC12N=NN(c3ccc([N+](=O)[O-])cc3)C1(O)c1ccccc1C2=O (stereo not drawn)
A549
  GI50: > 100 µM (inactive)
HCT-15
  GI50: > 100 µM
NCI-H23
  GI50: > 100 µM (inactive)
LOX IMVI
  GI50: > 100 µM (inactive)
KM-20L2
  GI50: > 100 µM (inactive)
UACC-62
  GI50: > 100 µM (inactive)
SF-539
  GI50: 70.1 µM (inactive)
HCC 2998
  GI50: > 100 µM (inactive)
SF-268
  GI50: > 100 µM (inactive)
U-251
  GI50: > 100 µM (inactive)
HT-29
  GI50: > 100 µM (inactive)
SK-MEL-5
  GI50: > 100 µM (inactive)
M14
  GI50: > 100 µM (inactive)
RXF 393
  GI50: > 100 µM (inactive)
XF498
  GI50: > 100 µM (inactive)
IGROV-1
  GI50: > 100 µM (inactive)
OVCAR-8
  GI50: > 100 µM (inactive)
EKVX
  GI50: > 100 µM (inactive)
HCT-116
  GI50: > 100 µM (inactive)
SW-620
  GI50: > 100 µM (inactive)
HL-60
  GI50: > 100 µM (inactive)
NCI-H460
  GI50: > 100 µM (inactive)
Malme-3M
  GI50: > 100 µM (inactive)
DMS-114
  GI50: > 100 µM (inactive)
SNB-19
  GI50: > 100 µM (inactive)
COLO 205
  GI50: > 100 µM (inactive)
HOP-62
  GI50: > 100 µM (inactive)
SR
  GI50: > 100 µM (inactive)
SN12C
  GI50: > 100 µM (inactive)
SK-OV-3
  GI50: > 100 µM (inactive)
UACC-257
  GI50: > 100 µM (inactive)
NCI-H226
  GI50: > 100 µM (inactive)
786-0
  GI50: > 100 µM (inactive)
DMS-273
  GI50: > 100 µM (inactive)
LXFL 529
  GI50: > 100 µM (inactive)
TK-10
  GI50: > 100 µM (inactive)
ACHN
  GI50: 48.5 µM (inactive)
M19-MEL
  GI50: > 100 µM (inactive)
UO-31
  GI50: > 100 µM (inactive)
OVCAR-3
  GI50: > 100 µM (inactive)
RPMI-8226
  GI50: > 100 µM (inactive)
KM12
  GI50: > 100 µM (inactive)
SF-295
  GI50: > 100 µM (inactive)
NCI-H522
  GI50: > 100 µM (inactive)

## FC(F)(F)c1cccc(/C=N/C23CC4CC(CC(C4)C2)C3)c1
A549
  GI50: > 100 µM (inactive)
HCT-15
  GI50: > 100 µM
NCI-H23
  GI50: > 100 µM (inactive)
LOX IMVI
  GI50: > 100 µM (inactive)
CAKI-1
  GI50: > 100 µM (inactive)
KM-20L2
  GI50: > 100 µM (inactive)
OVCAR-4
  GI50: > 100 µM (inactive)
SF-539
  GI50: > 100 µM (inactive)
HCC 2998
  GI50: > 100 µM (inactive)
SF-268
  GI50: > 100 µM (inactive)
SNB-78
  GI50: > 100 µM (inactive)
U-251
  GI50: > 100 µM (inactive)
HT-29
  GI50: > 100 µM (inactive)
SK-MEL-5
  GI50: > 100 µM (inactive)
M14
  GI50: > 100 µM (inactive)
RXF 393
  GI50: > 100 µM (inactive)
XF498
  GI50: > 100 µM (inactive)
IGROV-1
  GI50: > 100 µM (inactive)
OVCAR-8
  GI50: > 100 µM (inactive)
EKVX
  GI50: > 100 µM (inactive)
HCT-116
  GI50: > 100 µM (inactive)
SW-620
  GI50: > 100 µM (inactive)
HL-60
  GI50: > 100 µM (inactive)
NCI-H460
  GI50: > 100 µM (inactive)
OVCAR-5
  GI50: > 100 µM (inactive)
Malme-3M
  GI50: > 100 µM (inactive)
DMS-114
  GI50: > 100 µM (inactive)
A498
  GI50: > 100 µM (inactive)
MOLT-4
  GI50: > 100 µM (inactive)
SNB-19
  GI50: > 100 µM (inactive)
COLO 205
  GI50: > 100 µM (inactive)
HOP-62
  GI50: > 100 µM (inactive)
SR
  GI50: > 100 µM (inactive)
SN12C
  GI50: > 100 µM (inactive)
SK-MEL-28
  GI50: > 100 µM (inactive)
SK-OV-3
  GI50: > 100 µM (inactive)
UACC-257
  GI50: > 100 µM (inactive)
NCI-H226
  GI50: > 100 µM (inactive)
SK-MEL-2
  GI50: > 100 µM (inactive)
786-0
  GI50: > 100 µM (inactive)
DMS-273
  GI50: > 100 µM (inactive)
TK-10
  GI50: > 100 µM (inactive)
K562
  GI50: > 100 µM (inactive)
ACHN
  GI50: > 100 µM (inactive)
M19-MEL
  GI50: 27.5 µM (inactive)
SNB-75
  GI50: 51.9 µM (inactive)
UO-31
  GI50: > 100 µM (inactive)
OVCAR-3
  GI50: > 100 µM (inactive)
RPMI-8226
  GI50: > 100 µM (inactive)
KM12
  GI50: > 100 µM (inactive)
SF-295
  GI50: > 100 µM (inactive)
